Test results: patent publication US7846959B2, “Raf modulators and methods of use” (Exelixis, Inc., priority 2004, dated 2010)

How the values were obtained:
c-Raf = c-Raf (Homo sapiens, UniProt P04049); assay: Luciferase-coupled chemiluminescence kinase assay (ATP consumption), c-Raf; type: biochemical; settings: read-out: cRaf-1 IC50
Procedure, shortened: (§1)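 Enzyme ([…]) was pre-incubated with compound for 30 min at room temperature in 20 mM Tris pH 7.5, 10 mM MgCl2, 0.03% TX-100, 1 mM DTT. ATP was added and the reaction ran 3 h at ambient temperature. Remaining ATP was read by luciferase-luciferin chemiluminescence, giving IC50 values.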

B-Raf = B-Raf (Homo sapiens, UniProt P15056); assay: Luciferase-coupled chemiluminescence kinase assay (ATP consumption), B-Raf; type: biochemical; settings: read-out: bRaf IC50
Procedure, shortened: as §1

Sequence of B-Raf (P15056 whole entry): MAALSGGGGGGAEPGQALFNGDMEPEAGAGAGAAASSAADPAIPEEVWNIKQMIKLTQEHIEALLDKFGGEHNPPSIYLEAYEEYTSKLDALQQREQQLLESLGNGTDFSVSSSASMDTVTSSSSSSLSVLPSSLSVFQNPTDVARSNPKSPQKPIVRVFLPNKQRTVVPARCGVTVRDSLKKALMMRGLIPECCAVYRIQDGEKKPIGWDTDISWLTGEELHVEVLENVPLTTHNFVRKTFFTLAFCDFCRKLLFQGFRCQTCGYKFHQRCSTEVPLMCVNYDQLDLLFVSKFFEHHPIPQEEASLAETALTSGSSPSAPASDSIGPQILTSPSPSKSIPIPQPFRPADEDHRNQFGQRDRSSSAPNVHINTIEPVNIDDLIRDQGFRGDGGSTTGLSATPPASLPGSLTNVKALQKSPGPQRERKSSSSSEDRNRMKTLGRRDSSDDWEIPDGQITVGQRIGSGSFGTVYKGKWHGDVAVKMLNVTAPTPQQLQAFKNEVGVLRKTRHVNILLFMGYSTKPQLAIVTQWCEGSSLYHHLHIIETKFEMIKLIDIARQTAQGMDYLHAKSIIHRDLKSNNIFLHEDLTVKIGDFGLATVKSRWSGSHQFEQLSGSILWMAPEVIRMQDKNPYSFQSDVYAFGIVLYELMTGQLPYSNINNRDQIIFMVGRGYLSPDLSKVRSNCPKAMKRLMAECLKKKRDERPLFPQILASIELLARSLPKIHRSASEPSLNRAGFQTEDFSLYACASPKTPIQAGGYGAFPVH
Sequence of c-Raf (P04049 whole entry): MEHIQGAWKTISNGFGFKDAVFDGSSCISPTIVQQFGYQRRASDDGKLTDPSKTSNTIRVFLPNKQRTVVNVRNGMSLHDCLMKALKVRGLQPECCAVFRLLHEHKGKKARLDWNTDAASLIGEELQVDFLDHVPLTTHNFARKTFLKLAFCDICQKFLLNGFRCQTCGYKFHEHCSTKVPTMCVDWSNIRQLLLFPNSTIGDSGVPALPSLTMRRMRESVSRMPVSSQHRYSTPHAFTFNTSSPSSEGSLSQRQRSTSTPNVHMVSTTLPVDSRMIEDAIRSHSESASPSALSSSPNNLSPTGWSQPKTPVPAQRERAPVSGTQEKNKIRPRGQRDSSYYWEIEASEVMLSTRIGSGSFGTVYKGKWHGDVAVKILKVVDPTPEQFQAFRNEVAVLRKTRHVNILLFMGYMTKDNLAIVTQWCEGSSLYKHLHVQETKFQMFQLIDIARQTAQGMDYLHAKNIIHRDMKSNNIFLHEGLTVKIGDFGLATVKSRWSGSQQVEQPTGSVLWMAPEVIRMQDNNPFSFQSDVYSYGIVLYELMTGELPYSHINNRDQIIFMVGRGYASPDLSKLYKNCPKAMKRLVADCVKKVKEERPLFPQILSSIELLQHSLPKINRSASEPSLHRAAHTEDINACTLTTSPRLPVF

| Compound | IC50 (c-Raf) [µM] | IC50 (B-Raf) [µM] |
| --- | --- | --- |
| COC(=O)Nc1nc2cc(C3(O)c4ccccc4C(=O)N3c3cccc(OCCN(C)C)c3)ccc2[nH]1 (stereo not drawn) [Entry 159, methyl {5-[2-(3-{[2-(dimethylamino)ethyl]oxy}phenyl)-1-hydroxy-3-oxo-2,3-dihydro-1H-isoindol-1-yl]-1H-benzimidazol-2-yl}carbamate] | 0.1 to 1 | 1 to 10 |
| COC(=O)Nc1nc2cc(C3(O)c4ccccc4C(=O)N3CC(C)C)ccc2[nH]1 (stereo not drawn) [Entry 162, methyl {5-[1-hydroxy-2-(2-methylpropyl)-3-oxo-2,3-dihydro-1H-isoindol-1-yl]-1H-benzimidazol-2-yl}carbamate] | 0.1 to 1 | 0.1 to 1 |
| COC(=O)Nc1nc2cc(C3(O)c4ccccc4C(=O)N3Cc3nccs3)ccc2[nH]1 (stereo not drawn) [Entry 163, methyl {5-[1-hydroxy-3-oxo-2-(1,3-thiazol-2-ylmethyl)-2,3-dihydro-1H-isoindol-1-yl]-1H-benzimidazol-2-yl}carbamate] | 0.1 to 1 | 0.1 to 1 |
| COC(=O)Nc1nc2cc(C3(O)c4ccccc4C(=O)N3C(C)c3cc(F)cc(F)c3)ccc2[nH]1 (stereo not drawn) [Entry 165, methyl (5-{2-[1-(3,5-difluorophenyl)ethyl]-1-hydroxy-3-oxo-2,3-dihydro-1H-isoindol-1-yl}-1H-benzimidazol-2-yl)carbamate] | 0.1 to 1 | 1 to 10 |
| COC(=O)Nc1nc2cc(C3(O)c4ccccc4C(=O)N3C(C)c3cccc(F)c3)ccc2[nH]1 (stereo not drawn) [Entry 166, methyl (5-{2-[1-(3-fluorophenyl)ethyl]-1-hydroxy-3-oxo-2,3-dihydro-1H-isoindol-1-yl}-1H-benzimidazol-2-yl)carbamate] | 0.1 to 1 | < 0.1 |
| O=C(Nc1nc2cc(C3(O)c4ccccc4C(=O)N3Cc3ccccc3)ccc2[nH]1)OC1CCNCC1 (stereo not drawn) [Entry 170, piperidin-4-yl {5-[1-hydroxy-3-oxo-2-(phenylmethyl)-2,3-dihydro-1H-isoindol-1-yl]-1H-benzimidazol-2-yl}carbamate] | < 0.1 | < 0.1 |

Other lines, results leading:

| IC50 (c-Raf) [µM] | IC50 (B-Raf) [µM] | Compound |
| --- | --- | --- |
| < 0.1 | < 0.1 | CN1CCN(CCCOC(=O)Nc2nc3ccc(C4(O)c5ccccc5C(=O)N4Cc4ccccc4)cc3[nH]2)CC1 (stereo not drawn) [Entry 160, 3-(4-methylpiperazin-1-yl)propyl {6-[1-hydroxy-3-oxo-2-(phenylmethyl)-2,3-dihydro-1H-isoindol-1-yl]-1H-benzimidazol-2-yl}carbamate] |
| < 0.1 | < 0.1 | COC(=O)Nc1nc2cc(C3(O)c4ccccc4C(=O)N3CC3CCCCC3)ccc2[nH]1 (stereo not drawn) [Entry 161, methyl {5-[2-(cyclohexylmethyl)-1-hydroxy-3-oxo-2,3-dihydro-1H-isoindol-1-yl]-1H-benzimidazol-2-yl}carbamate] |
| < 0.1 | < 0.1 | COC(=O)Nc1nc2cc(C3(O)c4ccccc4C(=O)N3c3ccc(F)c(F)c3)ccc2[nH]1 (stereo not drawn) [Entry 164, methyl {5-[2-(3,4-difluorophenyl)-1-hydroxy-3-oxo-2,3-dihydro-1H-isoindol-1-yl]-1H-benzimidazol-2-yl}carbamate] |
| < 0.1 | < 0.1 | COC(=O)Nc1nc2cc(C3(O)c4ccccc4C(=O)N3C3CCCCC3)ccc2[nH]1 (stereo not drawn) [Entry 167, methyl [5-(2-cyclohexyl-1-hydroxy-3-oxo-2,3-dihydro-1H-isoindol-1-yl)-1H-benzimidazol-2-yl]carbamate] |
| < 0.1 | < 0.1 | COC(=O)Nc1nc2cc(C3(O)c4ccccc4C(=O)N3c3cc(F)ccc3F)ccc2[nH]1 (stereo not drawn) [Entry 168, methyl {5-[2-(2,5-difluorophenyl)-1-hydroxy-3-oxo-2,3-dihydro-1H-isoindol-1-yl]-1H-benzimidazol-2-yl}carbamate] |
| < 0.1 | < 0.1 | O=C(NCc1ccccc1)Nc1nc2cc(C3(O)c4ccccc4C(=O)N3Cc3ccccc3)ccc2[nH]1 (stereo not drawn) [Entry 169, N-{5-[1-hydroxy-3-oxo-2-(phenylmethyl)-2,3-dihydro-1H-isoindol-1-yl]-1H-benzimidazol-2-yl}-N′-(phenylmethyl)urea] |
